The source of these data is patent US10512627B2, “Anti-tumor compound and the medical use thereof” (Tianjin Medical University Cancer Institute and Hospital, priority 2014, dated 2019).

The nature of series [1]: Solubility. In kind it is physicochemical. As to conditions: dry ethanol, methanol, chloroform, dimethylformamide, dimethylsulfoxide.
In series [2] the test system is human lung adenocarcinoma cell A549. Briefly: Scratch test, migration of A549 (Example 4). It counts as cell-based. As to conditions: 4 and 100 μmol/L, 0-36 h. The method, then:
The inhibiting ability of (S)2-(4′-methyl-3′-nitrobenzoylamino)-3-phenylpropionic acid for the migration of human lung adenocarcinoma cell A549 was tested by scratch test.
A549 cells in logarithmic growth phase were plated in the 6-well plate with the density of 5×10^5/3 mL, and after 12 h, the drug was added, with 100 μL per well. The final concentrations of (S)2-(4′-methyl-3′-nitrobenzoylamino)-3-phenylpropionic acid (TCI04) were 4 and 100 μmol/L respectively. The negative control was 100 μL sterilized water with 2% DMSO and the positive control was 4, 100 μmol/L 4-methyl-3-nitrobenzoic acid (TCI01). After 36 h, the medium was removed, and after washing 3 times with PBS, 3 ml culture medium without fetal bovine serum and 100 μL drug (concentration was as above) per well were added. 6 h later, 200 μL tips were used to scratch, and after washing 4 times with PBS, 3 ml medium without fetal bovine serum per well was added. The distance of cell migration was recorded every 3 h under the inverted microscope, and photos were taken at 0 h and 36 h.

In series [3] the test system is human breast cancer cell MDA-MB-231. Briefly: Transwell invasion assay through Matrigel (Example 5). It counts as cell-based. On the procedure:
The inhibiting ability of (S)2-(4′-methyl-3′-nitrobenzoylamino)-3-phenylpropionic acid for the invasion of human breast cancer cell MDA-MB-231 was tested by Transwell invasion assay.
1) Gel placement into the Transwell chamber: Matrigel was melted under ice-bath of 4° C. overnight, and diluted with pre-cooled serum free DMEM medium at a ratio of 1:3. Transwell chamber was put in the 24-well plate, and 50 μL gel solution was added per chamber, stayed at 37° C. for 1 h, then 200 μL serum free DMEM medium was added and stayed for 15 min to make the gel reconstitute, and finally the medium was removed for stand-by;
2) MDA-MB-231 cells in logarithmic growth phase were plated in 6-well plate with the density of 1×10^6/3 mL, and after 12 h, the drug was added, with 100 μL per well. The final concentrations of (S)2-(4′-methyl-3′-nitrobenzoylamino)-3-phenylpropionic acid were 1, 2, and 4 μmol/L, respectively. The negative control was 100 μL sterilized water with 2% DMSO and the positive control was 1 μmol/L 4-methyl-3-nitrobenzoic acid. After 12 h, the medium was removed, followed by washing 3 times with PBS, and 3 ml medium without fetal bovine serum and 100 μL drug (concentration is as above) per well were added. […] The cell number was counted and the cells were seeded at the density of 2×10^5/200 μL into the Transwell chamber with the Matrigel. […]

Series [4] can be described thus: Mice acute toxicity assay, intravenous administration (Example 9). As to conditions: both sexes, Kunming, mouse, in vivo, Bliss algorithm. On the procedure: The median lethal dose of (S)2-(4′-methyl-3′-nitrobenzoylamino)-3-phenylpropionic acid via intravenous administration was tested by mice acute toxicity assay.
1) Mice grouping, Kunming mice of clean grade, 10 weeks old, 30˜40 g body weight, 10 mice for each group, half male and half female.
2) 10 groups in total, concentration distance between groups was 0.88. Sterilized water was added to the mother liquid II for dosage form administrated by intravenous injection to formulate into the required concentration and 0.2 ml was intravenously injected for each mouse, following 14 days observation. The dosage of administration for each group and the death numbers were recorded as follows: […]

Series [5] can be described thus: Acute toxicity assay in mice, oral administration (Example 10). The following applies: both sexes, mouse, in vivo, 5000 mg/kg; oral administration, Kunming mice. The method, then: (§1) The medium lethal dose of (S)2-(4′-methyl-3′-nitrobenzoylamino)-3-phenylpropionic acid via oral administration was tested by acute toxicity assay in mice.
(§2) 1) Mice grouping: Kunming mice of clean grade, 10 weeks old, 30˜40 g body weight, 5 mice for each group, and all of the mice were males or females.
(§3) 2) 3.2 g (S)2-(4′-methyl-3′-nitrobenzoylamino)-3-phenylpropionic acid was added to 8 mL solution of 3% sodium carboxymethylcellulose solution, and the mixture was homogenated for 5 min at 30000 rpm with a homogenizer. Each mouse undergone administration of intragastric infusion with 0.5 ml at a dosage of 5000 mg/kg. […] If the death number was […], the LD50 was regarded as more than 5000 mg/kg; if the death number equals to or was more than 3, the main experiments will be performed. The experiment was repeated for 3 times and the result was recorded as follows: […]

Series [6] concerns Kunming mice. The description is as above. The following applies: Kunming, mouse, in vivo, 14 days. The method, then: as §1, §2, §3
For series [7], the system named is MDA-MB-231 cells. Briefly: MTT assay, proliferation of MDA-MB-231 (Example 11). In kind it is cell-based. The following applies: Homo sapiens, 48 h. The method, then: The half inhibitory concentration of (S)2-(4′-methyl-3′-nitrobenzoylamino)-3-phenylpropionic acid for MDA-MB-231 cells was tested by MTT assay.
2) 5 mg/mL MTT solution was prepared with sterilized PBS, filtered with 0.22 um film, and then diluted with medium to 1 mg/mL. The medium in the 96-well plate was discarded, and 100 μL 1 mg/mL MTT working solution was add, followed by continuous culturing for 5 h.
3) MTT working solution was discarded, and 150 μL DMSO was added to each well (note: to away from light), and then the plate was shaken on the horizontal shaker at 170 rpm for 10 min, followed by detecting the absorbance at 490 nm with microplate reader.

Some results are limits rather than exact numbers.

The term LD50 denotes the dose at which mortality reaches 50%. As a reminder, the IC50 is the midpoint of a concentration-inhibition curve. High values mean lower potency, low ones higher potency. Turning to `Cc1ccc(C(=O)N[C@@H](Cc2ccccc2)C(=O)O)cc1[N+](=O)[O-]` [(S)2-(4′-methyl-3′-nitrobenzoylamino)-3-phenylpropionic acid], the “solubility in organic solvents” value in series [1] is on record as “highly soluble”. Further, the “inhibition of migration ability (coalescence speed of cell scratch vs negative control)” value in series [2] is given as “significantly inhibited”. For the same molecule, the “invaded cell number compared to the negative control” value in series [3] (1, 2, 4 μmol/L, 24 h, P<0.01) was “significantly less than the negative control”. In addition, the “invaded cell number compared to the positive control (1 μmol/L 4-methyl-3-nitrobenzoic acid)” value in series [3] (2, 4 μmol/L, P>0.05) is “no significant difference”. The LD50 at 14 days in series [4] (read-out: LD50) was 269 mg/kg. Further, in series [4] (read-out: LD50 95% confidence limits), the LD50 at 14 days was in the range of 249 to 291 mg/kg. In addition, the LD50 at 14 days in series [5] is > 5000 mg/kg. Besides, in series [6] (female), the “Death number, Female mice, The first test” value is reported as 2; the “Death number, Female mice, The second test” value is given as 2; the “Death number, Female mice, The third test” value came out at 1. Further, in series [6] (male), the “Death number, Male mice, The first test” value is 2; the “Death number, Male mice, The second test” value is on record as 1; the “Death number, Male mice, The third test” value is reported as 1. The molecule further yielded an IC50 in series [7] of 2450 µM.
